Literature values in article PMC9389927 (Renal Failure, 2022).

System: experimental model of AKI

For “IGF-1: long-chain polypeptide composed of dozens of amino acids, including four domains, A, B, C and D”, the Glomerular filtration rate is given as “increased the glomerular filtration rate”.
